# Experiments:
# [1] = tested on: advanced glycation end-products (AGEs) formation; assay: Inhibition of protein glycation (BSA/D-glucose, fluorescent AGEs); details: BSA + D-glucose, 37 °C for a week
# Procedure: The procedure by Sekhon-Loodu and Rupasinghe was adapted with slight modification. Bovine serum albumin (BSA), D-glucose and aminoguanidine were dissolved in 0.2 M phosphate buffer saline (pH 7.4) containing sodium azide (0.02% w/v). Equal volumes containing BSA (5.0 mg/mL) and D-glucose (36 mg/mL) and the negative control or the test samples or aminoguanidine at different concentrations (0.01, 0.02, 0.04, 0.05, 0.1, 0.2, 0.5 and 1.0 mg/mL) were added to reach a final volume of 1.0 mL. Aminoguanidine, a known AGE formation inhibitor, was used as the positive control. The mixtures in Eppendorf tubes were incubated in triplicate at 37 °C for a week. Fluorescent AGEs were measured using a microplate reader at 340 nm excitation and 420 nm emission wavelengths. Experiments were conducted in triplicates. The percentage of the AGE inhibition was calculated as shown below:(3) Inhibition (%)=[1−(Fluorescent of the test/Fluorescent of control)]×100
# The results were expressed in terms of IC50 representing the concentration of test extracts required to cause the inhibition of AGE formation by 50%.
# [2] = ABTS radical scavenging activity; details: soluble (70% ethanol) extracts; 734 nm
# Procedure: The ABTS radical scavenging assay described by Ofosu et al. was used. ABTS^+ stock solution was prepared by reacting equal volumes of 7 mM ABTS solution with 2.45 mM potassium persulfate solution in the dark at room temperature for 16 h. Using ethanol, the ABTS+ stock solution was diluted to obtain an absorbance of approximately 0.70 at 734 nm. Appropriately, 80 μL sample extracts of various concentrations were added to 1 mL freshly prepared ABTS+ radical solution, and the absorbance was read at 734 nm.
# [3] = DPPH radical scavenging activity; details: soluble (70% ethanol) extracts; 30 min, 517 nm
# Procedure: The method previously described by Ofosu et al. was used to measure DPPH radical scavenging by ethanol extracts using a 24-well microplate reader. Briefly, 200 μL sample extracts of various concentrations were added to 2 mL freshly made DPPH radical solution (100 μM). After 30 min incubation at room temperature, absorbance was read at 517 nm.
ABTS radical scavenging activity IC50 [2] [mg/L],DPPH radical scavenging activity IC50 [3] [mg/L],SMILES,AGEs formation inhibitory activity IC50 [1] [mg/L]
–,–,N=C(N)NN [aminoguanidine],52.30
74.60 ± 1.45,48.7 ± 2.19,"Cc1c(C)c2c(c(C)c1O)CCC(C)(C(=O)O)O2 (stereo not drawn) [Trolox, 6-hydroxy-2,5,7,8-tetramethylchromane-2-carboxylic acid]",–

# Reference: PMC7355972, “Flavonoids in Decorticated Sorghum Grains Exert Antioxidant, Antidiabetic and Antiobesity Activities” (Molecules, 2020)
